Converted amounts (≈) assume the structure as drawn.
Experiments:
[1] = system: Raw 264.7 cells infected with H37Rv-GFP; test: microbe, parasite or virus in culture; assay type: cell-based, M. tuberculosis; conditions: for MIC50: Mycobacterium tuberculosis, H37RV, 120 h, read-out: QIM (MIC50)
[2] = system: M. tuberculosis H37Rv expressing the green fluorescent protein (H37Rv-GFP); test: microbe, parasite or virus in culture; assay type: cell-based; conditions: Mycobacterium tuberculosis, H37RV, 120 h; read-out: QUM (MIC50)

SMILES | MIC50 [1] [µM] | MIC50 [2] [µM] | QIM (MIC50, uM) [1]
COc1ccc(NC(=O)c2cc3sc(N4CCC(O)CC4)nc3s2)cc1 [Compound 76] | < 1 | < 1 | –
O=C(Nc1ccc(CN2CCN(c3ccc(F)cc3)CC2)cc1)c1cc2sc(N3CCOCC3)nc2s1 [Compound 211] | < 1 | < 1 | –
Cc1nc2cc(NC(=O)c3cc4sc(N(C)CCC(=O)N(C)C)nc4s3)ccc2o1 [Compound 264] | 1 to 20 (≈ 0.444 to 8.87 µg/mL) | – | –
O=C(Nc1ccc(F)cc1)c1cc2sc(NC3CCNCC3)nc2s1 [Compound 312] | > 20 | > 20 | –
CN(CCO)c1nc2sc(C(=O)Nc3ccc(-c4ccn(C)n4)cc3)cc2s1 [Compound 275] | < 1 | 1 to 20 (≈ 0.414 to 8.27 µg/mL) | –
CN(C)C(=O)C1CCN(c2nc3sc(C(=O)Nc4ccc5oc(-c6ccc(Cl)cc6)nc5c4)cc3s2)CC1 [Compound 214] | < 1 | > 20 | –
COc1ccc(CN2CCN(c3nc4sc(C(=O)Nc5ccc(OC)cc5)cc4s3)CC2)cc1 [Compound 91] | < 1 | > 20 | –
O=C(Nc1ccc(F)cc1)c1cc2sc(OC3CCCCC3)nc2s1 [Compound 334] | < 1 | 1 to 20 (≈ 0.376 to 7.53 µg/mL) | –
CN(C)C(=O)C1CCN(c2nc3sc(C(=O)Nc4ccc(-c5ccc(F)nc5)cc4)cc3s2)CC1 [Compound 216] | < 1 | < 1 | –
O=C(O)c1ccc(NC(=O)c2cc3sc(N4CCCCC4)nc3s2)cc1 [Compound 51] | 1 to 20 (≈ 0.387 to 7.75 µg/mL) | 1 to 20 (≈ 0.387 to 7.75 µg/mL) | –
Cc1nc2cc(NC(=O)c3cc4sc(N5CCC(CC(=O)N(C)C)C5)nc4s3)ccc2o1 (stereo not shown) [Compound 308] | < 1 | < 1 | –
Cc1nc2cc(NC(=O)c3cc4sc(NCCC5CCOCC5)nc4s3)ccc2o1 [Compound 333] | < 1 | 1 to 20 (≈ 0.443 to 8.85 µg/mL) | –
O=C(Nc1ccc(F)cc1)c1cc2sc(NCCN3CCOCC3)nc2s1 [Compound 302] | < 1 | 1 to 20 (≈ 0.407 to 8.13 µg/mL) | –
Cc1nc2cc(NC(=O)c3cc4sc(NCCCN5CCOCC5)nc4s3)ccc2o1 [Compound 296] | < 1 | 1 to 20 (≈ 0.458 to 9.15 µg/mL) | –
N#Cc1ccc(NC(=O)c2cc3sc(NCCN4CCOCC4)nc3s2)cc1 [Compound 303] | > 20 | – | –
Cc1nc2cc(NC(=O)c3cc4sc(N5CCC(C(=O)c6ccc(Cl)cc6)CC5)nc4s3)ccc2o1 [Compound 205] | > 20 | > 20 | –
O=C(Nc1ccc(F)cc1)c1cc2sc(NC3CCCNC3)nc2s1 (stereo not shown) [Compound 310] | > 20 | > 20 | –
CN(CC(O)C(F)(F)F)c1nc2sc(C(=O)Nc3ccc(-c4ccc(F)cn4)cc3)cc2s1 (stereo not shown) [Compound 317] | < 1 | 1 to 20 (≈ 0.497 to 9.93 µg/mL) | –
CN(C)C(=O)C1CCN(c2nc3sc(C(=O)Nc4ccc(-c5ccc(F)cn5)cc4)cc3s2)CC1 [Compound 284] | – | < 1 | –
COCCCN(C)c1nc2sc(C(=O)Nc3ccc4oc(C)nc4c3)cc2s1 [Compound 254] | < 1 | – | –
O=C(Nc1ccc(F)cn1)c1cc2sc(N3CCNCC3)nc2s1 [Compound 342] | < 1 | 1 to 20 (≈ 0.363 to 7.27 µg/mL) | –
O=C(Nc1ccc(N2CCC(O)(Cc3ccccc3)CC2)cc1)c1cc2sc(NCCN3CCOCC3)nc2s1 [Compound 294] | < 1 | > 20 | –
Cc1nc2cc(NC(=O)c3cc4sc(N(C)CCN(C)C)nc4s3)ccc2o1 [Compound 253] | 1 to 20 (≈ 0.416 to 8.31 µg/mL) | – | –
Cc1nc2cc(NC(=O)c3cc4sc(N5CC[C@@H](C(=O)Nc6ccc7nc(C)oc7c6)C5)nc4s3)ccc2o1 [Compound 222] | < 1 | 1 to 20 (≈ 0.559 to 11.2 µg/mL) | –
CN(CC(O)C(F)(F)F)c1nc2sc(C(=O)Nc3ccc(F)cc3)cc2s1 (stereo not shown) [Compound 316] | < 1 | 1 to 20 (≈ 0.419 to 8.39 µg/mL) | –
CN(C)C(=O)C1CCN(c2nc3sc(C(=O)Nc4ccc(-c5ccc(C(F)(F)F)nc5)cc4)cc3s2)CC1 [Compound 209] | < 1 | < 1 | –

SMILES | MIC50 [1] [µM] | MIC50 [2] [µM] | QIM (MIC50, uM) [1]
CN(C)C(=O)C1CCN(c2nc3sc(C(=O)Nc4ccc(-c5ccc(F)cc5)nc4)cc3s2)CC1.Cl [Compound 259] | – | – | +++ (+++ indicates <1 uM)
CCN(CC)c1nc2sc(C(=O)Nc3ccc(OC)cc3)cc2s1 [Compound 287] | < 1 | < 1 | –
Cc1nnc(-c2ccc(NC(=O)c3cc4sc(N5CCC(C(=O)N(C)C)CC5)nc4s3)cc2)o1 [Compound 184] | > 20 | > 20 | –
O=C(Nc1ccc(F)cc1)c1cc2sc(NCC(O)C(F)(F)F)nc2s1 (stereo not shown) [Compound 330] | < 1 | 1 to 20 (≈ 0.405 to 8.11 µg/mL) | –
CN(CCO)c1nc2sc(C(=O)Nc3ccc4oc(CCc5ccc(F)cc5)nc4c3)cc2s1 [Compound 252] | < 1 | 1 to 20 (≈ 0.497 to 9.93 µg/mL) | –
O=C(Nc1ccc(-c2ccc(F)cn2)cc1)c1cc2sc(N3CCN4CCCC4C3)nc2s1 (stereo not shown) [Compound 324] | < 1 | < 1 | –
CN(C)C(=O)C1CCN(c2nc3sc(C(=O)Nc4ccc(-c5ccc(F)cn5)cc4)cc3s2)CC1 [Compound 268] | < 1 | – | –
O=C(O)c1ccc(NC(=O)c2cc3nc(N4CCCCC4)sc3s2)cc1 [Compound 19] | > 20 | 1 to 20 (≈ 0.387 to 7.75 µg/mL) | –
CN(CCO)c1nc2sc(C(=O)Nc3ccc(-c4nn(C)cc4Cl)cc3)cc2s1 [Compound 279] | 1 to 20 (≈ 0.448 to 8.96 µg/mL) | – | –
CN(C)C(=O)C1CCN(CCNc2nc3sc(C(=O)Nc4ccc(-c5ccc(F)cn5)cc4)cc3s2)CC1 [Compound 355] | – | 1 to 20 (≈ 0.553 to 11.1 µg/mL) | –
Cc1nc2cc(NC(=O)c3cc4sc(NC5CCN(C)CC5)nc4s3)ccc2o1 [Compound 356] | – | > 20 | –
CN(C)C(=O)C1CCN(c2nc3sc(C(=O)Nc4ccc(-c5ccc(F)cc5)cn4)cc3s2)CC1.CS(=O)(=O)O [Compound 283] | – | – | +++ (+++ indicates <1 uM)
COc1ccc(NC(=O)c2cc3sc(N4CCCCC4)nc3s2)c(OC)c1 [Compound 286] | > 20 | – | –
Cc1nc2cc(NC(=O)c3cc4sc(N(C)CCOC(C)C)nc4s3)ccc2o1 [Compound 255] | > 20 | – | –
CN(C)C(=O)C1CCN(c2nc3sc(C(=O)Nc4ccc(-c5n[nH]cc5Cl)cc4)cc3s2)CC1 [Compound 280] | > 20 | – | –
CN(CCO)c1nc2sc(C(=O)Nc3ccc(-c4n[nH]cc4Cl)cc3)cc2s1 [Compound 281] | 1 to 20 (≈ 0.434 to 8.68 µg/mL) | – | –
O=C(Nc1ccc(F)cc1)c1cc2sc(N3CCN4CCCC4C3)nc2s1 (stereo not shown) [Compound 322] | – | 1 to 20 (≈ 0.403 to 8.05 µg/mL) | –
Cc1nc2cc(NC(=O)c3cc4sc(NC5CCN(Cc6ccc(F)cc6)CC5)nc4s3)ccc2o1 [Compound 357] | – | 1 to 20 (≈ 0.522 to 10.4 µg/mL) | –
COc1ccc(NC(=O)c2cc3sc(N4CCCCC4)nc3s2)c(OC)c1OC [Compound 300] | > 20 | – | –
Cc1nc2cc(NC(=O)c3cc4sc(N(C)CCN5CCC5)nc4s3)ccc2o1 [Compound 257] | > 20 | – | –
O=C(Nc1ccc(-c2ccc(F)cn2)cc1)c1cc2sc(NCCN3CCOCC3)nc2s1 [Compound 293] | < 1 | – | –
Cc1nc2cc(NC(=O)c3cc4sc(N(C)CCOc5ccccc5)nc4s3)ccc2o1 [Compound 256] | < 1 | – | –
CN(C)C(=O)C1CCN(c2nc3sc(C(=O)Nc4ccc(CN5CCOCC5)cc4)cc3s2)CC1 [Compound 353] | – | 1 to 20 (≈ 0.514 to 10.3 µg/mL) | –
CN(C)C(=O)C1CCN(c2nc3sc(C(=O)Nc4ccc(N5CCOCC5)cc4)cc3s2)CC1 [Compound 352] | – | < 1 | –
COc1ccc(NC(=O)c2cc3sc(N4CCCCC4)nc3s2)cc1OC [Compound 285] | < 1 | – | –
CN1CCCC(Nc2nc3sc(C(=O)Nc4ccc(-c5ccc(F)nc5)cc4)cc3s2)C1 (stereo not shown) [Compound 354] | – | 1 to 20 (≈ 0.468 to 9.35 µg/mL) | –
